“Also recorded” adds a separate entry of the source. Like-named read-outs stand apart in the source and are kept apart here.
How the values were obtained:
[1] = molecular target: T1, cardiac histamine H2 receptors (Cavia porcellus, UniProt P47747); test: inhibition of the increase in frequency induced by histamine on the isolated right atrium of the guinea pig; type: cell-based; conditions: for Relative potency (cimetidine = 1): cardiac H2, from IC50, guinea pig right atrium
T1 construct: induced by histamine on the isolated right atrium of the guinea pig; from tissue; host or cells: isolated right atrium of the guinea pig
T1 sequence (P47747 whole entry): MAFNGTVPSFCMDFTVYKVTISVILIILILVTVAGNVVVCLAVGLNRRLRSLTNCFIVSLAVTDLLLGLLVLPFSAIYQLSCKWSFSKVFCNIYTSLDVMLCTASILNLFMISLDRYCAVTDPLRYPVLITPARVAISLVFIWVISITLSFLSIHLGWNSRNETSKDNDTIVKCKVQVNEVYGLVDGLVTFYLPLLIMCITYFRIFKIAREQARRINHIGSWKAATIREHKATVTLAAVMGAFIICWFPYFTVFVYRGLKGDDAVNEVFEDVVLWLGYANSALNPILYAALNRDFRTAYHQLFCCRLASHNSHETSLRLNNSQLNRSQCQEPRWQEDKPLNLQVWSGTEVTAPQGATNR
Source text: Such an IC50 represents the index of cardiac H2 blocking action.

[2] = molecular target: T2, gastric histamine H2 receptors (Rattus norvegicus, UniProt P25102); test: antisecretory activity: antagonism of histamine-induced gastric acid hypersecretion in rat (Ghosh and Schild); type: in vivo; conditions: for Relative potency (cimetidine = 1): gastric H2, from ID50, rat i.v.; for ED50: rat, read-out: ID50 (dose which inhibits by 50% the gastric hypersecretion induced by histamine); for antisecretory (gastric H2 blocking) activity in words: comparison from Table I
T2 construct: the gastric secretion is measured by perfusion of a physiological solution at a constant speed in the stomach of the animal; from tissue; host or cells: stomach of the living rat (in vivo, intravenous histamine infusion)
T2 sequence (P25102 whole entry, the tested form may be a part): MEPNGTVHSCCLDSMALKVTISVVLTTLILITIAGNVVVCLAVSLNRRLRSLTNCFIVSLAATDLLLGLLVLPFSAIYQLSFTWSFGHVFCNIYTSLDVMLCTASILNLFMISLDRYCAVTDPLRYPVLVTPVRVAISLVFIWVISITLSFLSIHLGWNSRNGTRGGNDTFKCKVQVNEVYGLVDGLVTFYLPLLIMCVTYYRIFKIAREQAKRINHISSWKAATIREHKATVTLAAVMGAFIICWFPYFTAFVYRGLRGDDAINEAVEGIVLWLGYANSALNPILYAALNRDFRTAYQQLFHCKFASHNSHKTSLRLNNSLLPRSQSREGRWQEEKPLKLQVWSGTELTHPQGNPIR
Description: According to this test, a gastric acid hypersecretion is induced by intravenous infusion of a sub-maximal dose of histamine equivalent to 15 mcmol/kg/hour and the gastric secretion is measured by perfusion of a physiological solution at a constant speed in the stomach of the animal.
Such a ID50 represents the index of the gastric H2 blocking action.

[3] = tested on: immature Sprague Dawley rats, castrated, testosterone-stimulated genitals and levator ani muscle; conditions: rat, in vivo, ip, 200 mg/kg/day
Description: Testosterone was administered by sub-cutaneous route, suspended in a vehicle for steroids, both at the dose of 0.2 mg/animal/day, and 0.4 mg/animal/day. […] As a control it was used a lot of animals treated with the vehicles only. The treatment lasted 8 days. The animals were killed 24 hours after the last injection, the ventral prostrate, the seminal vescicles and the levator ani were immediately drawn and weighed.

cardiac H2 receptors = conditions: Clinica Terapeutica, 1981, 96, 81-91; cited from earlier work
gastric acid secretion = conditions: rat; as oxalate; cited from earlier work
[4] = intravenous route, single administration, histamine infusion 15 mcmol/kg/hour

Row | Structure (SMILES) | Relative potency (cimetidine = 1) [1] | Relative potency (cimetidine = 1) [2] | ED50 [2, 4] [µmol/kg] | other results
1 | CN(C)Cc1ccc(CSCCNC(=O)c2cccc(NS(C)(=O)=O)c2)o1 [CM 57822, 3-methanesulfonamido-N-[2-(5-dimethylaminomethylfuran-2-ylmethylthio)ethyl]benzamide] | 0.2 | 0.97 | 0.98 | –
2 | CN(C)Cc1ccc(CSCCNC(=O)c2cccc(NS(=O)(=O)c3ccccc3)c2)o1 [CM 57888, 3-benzenesulfonamido-N-[2-(5-dimethylaminomethylfuran-2-ylmethylthio)ethyl]benzamide] | – | – | – | effect when testosterone was administered at the dose of 0.4 mg/animal/day [3]: did not exhibit any effect
3 | CN/C(=N/CCSCc1nc[nH]c1C)NC#N [Cimetidine, 2-cyano-1-methyl-3-[2[(5-methylimidazol-4-yl)methylthio]ethyl]guanidine, reference compound] | – | – | – | side effects in the treatment of the ulcerous disease (cardiac H2 receptors): bradycardia and of the asystolia observed as side effects; ED50 ([2]; iv): 0.95 µmol/kg
4 | CN(C)Cc1ccc(CSCCNC(=O)c2ccc(S(N)(=O)=O)cc2)o1 [Compound A, N-[2-(5-dimethylaminomethylfuran-2-ylmethylthio)ethyl]-4-sulfamoyl benzamide, reference compound] | 1.3 | 0.42 | 2.26 | cardiac H2 blocking activity in words (compared with cimetidine) ([1]; comparison from Table II): more active
5 | CN(C)Cc1ccc(CSCCNC(=O)c2ccc(S(N)(=O)=O)cc2)o1 [N-[2-(5-dimethylaminomethylfuran-2-ylmethylthio)ethyl]-4-sulfamoylbenzamide] | – | – | – | ED50 in the gastric acid secretion inhibiting activity (gastric acid secretion): 2.54 mg/kg
6 | CNC(=C[N+](=O)[O-])NCCSCc1ccc(CN(C)C)o1 [Ranitidine, N-[2[[5-[(dimethylamino)methyl]furfuryl]thio]ethyl]-N'-methyl-2-nitro-1,1-ethenediamine, reference compound] | 5 | 3.80 | – | ED50 ([2]; iv): 0.25 µmol/kg
7 | CN(C)Cc1ccc(CSCCNC(=O)c2cccc(NC(=O)c3ccc[n+]([O-])c3)c2)o1 [SR 57912, 3-[(3-pyridine 1-oxyde)carboxamido]-N-[2-(5-dimethylaminomethylfuran-2-ylmethylthio)ethyl]benzamide] | 0.08 | 2.88 | 0.33 | antisecretory (gastric H2 blocking) activity in words [2]: very powerful; also recorded: very close to that of ranitidine
8 | CN(C)Cc1ccc(CSCCNC(=O)c2cccc(NC(=O)c3cccs3)c2)o1 [SR 57922, 3-(2-thienylcarboxamido)-N-[2-(5-dimethylaminomethylfuran-2-ylmethylthio)ethyl]benzamide] | 0.06 | 0.82 | 1.15 | –
9 | CN(C)Cc1ccc(CSCCNC(=O)c2cccc(NC(=O)c3cccnc3)c2)o1.O=C(O)C(=O)O.O=C(O)C(=O)O [SR 57927 A, 3-(3-pyridinecarboxamido)-N-[2-(5-dimethylaminomethylfuran-2-ylmethylthio)ethyl]benzamide dioxalate] | – | 0.82 | – | ED50 ([2]; iv): 1.15 µmol/kg
10 | CN(C)Cc1ccc(CSCCNC(=O)c2cccc(NS(=O)(=O)c3cccnc3)c2)o1 [SR 57933, 3-(3-pyridinesulfonamido)-N-[2-(5-dimethylaminomethylfuran-2-ylmethylthio)ethyl]benzamide] | – | 0.52 | 1.82 | –
11 | CN(C)Cc1ccc(CSCCNC(=O)c2cccc(NS(=O)(=O)c3cccs3)c2)o1 [SR 57975, 3-(2-thiophenesulfonamido)-N-[2-(5-dimethylaminomethylfuran-2-ylmethylthio)ethyl]benzamide] | – | 1.02 | 0.93 | –
12 | CCCCS(=O)(=O)Nc1cccc(C(=O)NCCSCc2ccc(CN(C)C)o2)c1 [SR 57981 A, 3-butanesulfonamido-N-[2-(5-dimethylaminomethylfuran-2-ylmethylthio)ethyl]benzamide] | – | 1.94 | 0.49 | antisecretory (gastric H2 blocking) activity in words [2]: very powerful

— patent US4439444A, “Amidobenzamides, their salts and pharmaceutical compositions containing them” (Sanofi, priority 1981, dated 1984)
